{"source": "patent US10959968B2", "about": "“Methods for treating c-Met-dependent cancers” (Board of Supervisors of Louisiana State University and …, priority 2016, dated 2021)", "key": {"HER4 (ERbB4)": {"target": "HER4 (ERbB4) (Homo sapiens, UniProt Q15303)", "test": "SelectScreen Kinase Profiling", "format": "biochemical", "conditions": "read-out: Mean inhibition at 10 μM of HVS (%)", "description": "(§1) HVS was evaluated against a cross-section of tyrosine kinases (TKs), which are known to be structurally related and oncogenically relevant to c-Met, in order to understand its selectivity profile. A panel of 15 TKs was selected for biochemical analysis through the SelectScreen Kinase Profiling Service (Invitrogen, CA). In this assay, the results are expressed as % inhibition at a 10 μM dose (see Table I below).\nas §1, with “Table I (Above) HVS” for “HVS”, “profile (Table 1).” for “profile.”, “(Table 1).” for “(see Table I below).”"}, "FLT1 (VEGFR1)": {"target": "FLT1 (VEGFR1) (Homo sapiens, UniProt P17948)", "test": "SelectScreen Kinase Profiling", "format": "biochemical", "conditions": "read-out: Mean inhibition at 10 μM of HVS (%)", "description": "as §1\nas §1, with “Table I (Above) HVS” for “HVS”, “profile (Table 1).” for “profile.”, “(Table 1).” for “(see Table I below).”"}, "EGFR (ERbB1)": {"target": "EGFR (ERbB1) (Homo sapiens, UniProt P00533)", "test": "SelectScreen Kinase Profiling", "format": "biochemical", "conditions": "read-out: Mean inhibition at 10 μM of HVS (%)", "description": "as §1\nas §1, with “Table I (Above) HVS” for “HVS”, “profile (Table 1).” for “profile.”, “(Table 1).” for “(see Table I below).”"}, "FGFR1": {"target": "FGFR1 (Homo sapiens, UniProt P11362)", "test": "SelectScreen Kinase Profiling", "format": "biochemical", "conditions": "read-out: Mean inhibition at 10 μM of HVS (%)", "description": "as §1\nas §1, with “Table I (Above) HVS” for “HVS”, “profile (Table 1).” for “profile.”, “(Table 1).” for “(see Table I below).”"}, "KDR (VEGFR2)": {"target": "KDR (VEGFR2) (Homo sapiens, UniProt P35968)", "test": "SelectScreen Kinase Profiling", "format": "biochemical", "conditions": "read-out: Mean inhibition at 10 μM of HVS (%)", "description": "as §1\nas §1, with “Table I (Above) HVS” for “HVS”, “profile (Table 1).” for “profile.”, “(Table 1).” for “(see Table I below).”"}, "ALK": {"target": "ALK (Homo sapiens, UniProt Q9UM73)", "test": "SelectScreen Kinase Profiling", "format": "biochemical", "conditions": "read-out: Mean inhibition at 10 μM of HVS (%)", "description": "as §1\nas §1, with “Table I (Above) HVS” for “HVS”, “profile (Table 1).” for “profile.”, “(Table 1).” for “(see Table I below).”"}, "KIT": {"target": "KIT (Homo sapiens, UniProt P10721)", "test": "SelectScreen Kinase Profiling", "format": "biochemical", "conditions": "read-out: Mean inhibition at 10 μM of HVS (%)", "description": "as §1\nas §1, with “Table I (Above) HVS” for “HVS”, “profile (Table 1).” for “profile.”, “(Table 1).” for “(see Table I below).”"}, "PDGFRβ": {"target": "PDGFRβ (Homo sapiens, UniProt P09619)", "test": "SelectScreen Kinase Profiling", "format": "biochemical", "conditions": "read-out: Mean inhibition at 10 μM of HVS (%)", "description": "as §1\nas §1, with “Table I (Above) HVS” for “HVS”, “profile (Table 1).” for “profile.”, “(Table 1).” for “(see Table I below).”"}, "ROS1": {"target": "ROS1 (Homo sapiens, UniProt P08922)", "sequence (P08922 28-2347)": "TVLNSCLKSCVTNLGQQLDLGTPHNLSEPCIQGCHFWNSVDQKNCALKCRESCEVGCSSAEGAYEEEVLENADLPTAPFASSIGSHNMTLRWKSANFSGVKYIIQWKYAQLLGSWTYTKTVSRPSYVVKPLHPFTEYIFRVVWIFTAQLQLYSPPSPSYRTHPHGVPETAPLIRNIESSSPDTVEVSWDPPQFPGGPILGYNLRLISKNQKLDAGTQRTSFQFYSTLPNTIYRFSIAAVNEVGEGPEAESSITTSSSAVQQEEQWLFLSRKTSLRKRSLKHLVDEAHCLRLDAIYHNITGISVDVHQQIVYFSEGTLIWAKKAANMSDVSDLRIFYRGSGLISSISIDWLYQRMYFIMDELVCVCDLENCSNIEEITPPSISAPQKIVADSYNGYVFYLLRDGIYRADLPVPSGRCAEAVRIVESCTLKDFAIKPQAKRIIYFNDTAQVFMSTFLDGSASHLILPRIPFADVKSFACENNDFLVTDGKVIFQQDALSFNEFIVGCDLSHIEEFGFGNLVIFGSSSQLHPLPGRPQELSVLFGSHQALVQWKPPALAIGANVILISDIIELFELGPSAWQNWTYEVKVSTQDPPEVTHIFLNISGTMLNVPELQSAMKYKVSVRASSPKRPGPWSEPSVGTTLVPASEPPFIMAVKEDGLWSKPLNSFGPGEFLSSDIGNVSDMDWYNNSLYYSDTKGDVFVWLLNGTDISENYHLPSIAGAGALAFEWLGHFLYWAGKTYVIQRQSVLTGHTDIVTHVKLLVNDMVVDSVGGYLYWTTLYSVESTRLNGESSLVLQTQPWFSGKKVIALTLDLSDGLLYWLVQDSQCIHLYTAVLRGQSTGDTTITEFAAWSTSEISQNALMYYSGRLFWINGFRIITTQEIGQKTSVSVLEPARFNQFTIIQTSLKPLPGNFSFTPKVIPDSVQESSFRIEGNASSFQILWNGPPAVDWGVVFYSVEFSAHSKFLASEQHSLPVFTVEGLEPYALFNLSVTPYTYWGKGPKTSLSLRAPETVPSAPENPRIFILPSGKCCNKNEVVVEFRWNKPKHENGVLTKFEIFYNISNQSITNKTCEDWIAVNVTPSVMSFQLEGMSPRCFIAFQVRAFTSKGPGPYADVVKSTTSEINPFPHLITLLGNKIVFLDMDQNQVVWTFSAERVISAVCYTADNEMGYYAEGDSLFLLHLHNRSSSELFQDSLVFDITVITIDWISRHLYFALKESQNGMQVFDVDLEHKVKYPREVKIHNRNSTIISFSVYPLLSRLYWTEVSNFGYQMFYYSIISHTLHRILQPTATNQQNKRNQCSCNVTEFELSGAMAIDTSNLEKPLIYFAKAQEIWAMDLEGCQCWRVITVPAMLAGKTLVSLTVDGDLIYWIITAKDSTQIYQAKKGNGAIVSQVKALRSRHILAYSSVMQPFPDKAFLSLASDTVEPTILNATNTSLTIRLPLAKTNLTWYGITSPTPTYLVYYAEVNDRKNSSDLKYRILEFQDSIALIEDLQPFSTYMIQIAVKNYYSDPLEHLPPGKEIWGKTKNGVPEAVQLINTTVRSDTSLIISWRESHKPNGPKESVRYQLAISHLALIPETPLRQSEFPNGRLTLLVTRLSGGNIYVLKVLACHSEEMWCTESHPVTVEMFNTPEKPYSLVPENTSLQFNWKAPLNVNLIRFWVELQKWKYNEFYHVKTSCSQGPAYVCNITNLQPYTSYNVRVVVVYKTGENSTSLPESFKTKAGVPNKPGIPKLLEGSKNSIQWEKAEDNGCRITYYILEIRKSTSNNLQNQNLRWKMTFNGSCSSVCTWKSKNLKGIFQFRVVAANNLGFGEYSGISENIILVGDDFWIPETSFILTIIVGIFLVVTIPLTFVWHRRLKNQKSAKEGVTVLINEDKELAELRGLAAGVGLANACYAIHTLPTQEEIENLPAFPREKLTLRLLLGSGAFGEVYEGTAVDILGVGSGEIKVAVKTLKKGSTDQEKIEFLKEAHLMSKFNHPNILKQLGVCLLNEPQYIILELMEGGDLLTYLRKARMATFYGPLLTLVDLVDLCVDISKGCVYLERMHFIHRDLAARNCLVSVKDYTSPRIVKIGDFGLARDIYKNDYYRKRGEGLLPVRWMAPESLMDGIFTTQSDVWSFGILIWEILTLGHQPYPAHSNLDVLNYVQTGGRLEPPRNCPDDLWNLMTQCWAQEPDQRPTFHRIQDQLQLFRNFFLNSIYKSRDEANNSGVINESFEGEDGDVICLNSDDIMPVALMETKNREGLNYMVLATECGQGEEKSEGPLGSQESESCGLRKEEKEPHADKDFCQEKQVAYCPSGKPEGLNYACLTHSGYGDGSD", "test": "SelectScreen Kinase Profiling", "format": "biochemical", "conditions": "read-out: Mean inhibition at 10 μM of HVS (%)", "description": "as §1\nas §1, with “Table I (Above) HVS” for “HVS”, “profile (Table 1).” for “profile.”, “(Table 1).” for “(see Table I below).”"}, "HER2 (ERbB2)": {"target": "HER2 (ERbB2) (Homo sapiens, UniProt P04626)", "sequence (P04626 23-1255)": "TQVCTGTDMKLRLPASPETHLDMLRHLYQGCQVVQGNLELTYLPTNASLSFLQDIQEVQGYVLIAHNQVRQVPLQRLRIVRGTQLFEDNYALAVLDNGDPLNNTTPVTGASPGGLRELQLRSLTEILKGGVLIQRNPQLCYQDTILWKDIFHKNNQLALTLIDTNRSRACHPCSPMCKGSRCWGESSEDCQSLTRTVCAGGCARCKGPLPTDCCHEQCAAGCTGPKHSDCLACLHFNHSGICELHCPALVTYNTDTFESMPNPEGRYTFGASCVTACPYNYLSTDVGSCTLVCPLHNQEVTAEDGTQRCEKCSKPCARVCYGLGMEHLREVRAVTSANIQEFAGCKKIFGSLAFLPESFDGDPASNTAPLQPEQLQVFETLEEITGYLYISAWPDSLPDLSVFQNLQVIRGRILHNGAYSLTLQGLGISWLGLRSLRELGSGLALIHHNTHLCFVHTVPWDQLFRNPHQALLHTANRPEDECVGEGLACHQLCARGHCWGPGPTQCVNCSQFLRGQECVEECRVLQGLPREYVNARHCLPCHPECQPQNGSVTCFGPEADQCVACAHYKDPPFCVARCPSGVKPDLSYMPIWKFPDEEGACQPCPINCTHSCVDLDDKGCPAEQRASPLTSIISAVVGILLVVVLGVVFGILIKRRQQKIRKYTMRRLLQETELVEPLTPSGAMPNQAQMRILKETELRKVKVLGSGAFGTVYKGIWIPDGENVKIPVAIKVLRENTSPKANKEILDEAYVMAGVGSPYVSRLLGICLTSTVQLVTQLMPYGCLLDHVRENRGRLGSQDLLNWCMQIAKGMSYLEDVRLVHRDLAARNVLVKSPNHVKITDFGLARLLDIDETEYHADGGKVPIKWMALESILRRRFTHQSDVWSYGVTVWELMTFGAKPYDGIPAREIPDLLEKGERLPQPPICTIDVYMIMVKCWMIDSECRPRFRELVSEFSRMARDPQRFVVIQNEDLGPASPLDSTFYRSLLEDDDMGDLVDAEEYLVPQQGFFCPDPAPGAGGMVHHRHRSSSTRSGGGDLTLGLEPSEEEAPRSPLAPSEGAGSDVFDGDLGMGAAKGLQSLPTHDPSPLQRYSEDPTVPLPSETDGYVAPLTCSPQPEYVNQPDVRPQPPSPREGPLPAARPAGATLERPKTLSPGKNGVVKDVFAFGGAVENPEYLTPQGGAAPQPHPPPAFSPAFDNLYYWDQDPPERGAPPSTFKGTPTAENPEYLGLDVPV", "test": "SelectScreen Kinase Profiling", "format": "biochemical", "conditions": "read-out: Mean inhibition at 10 μM of HVS (%)", "description": "as §1\nas §1, with “Table I (Above) HVS” for “HVS”, “profile (Table 1).” for “profile.”, “(Table 1).” for “(see Table I below).”"}, "IGF1R": {"target": "IGF1R (Homo sapiens, UniProt P08069)", "sequence (P08069 31-1367)": "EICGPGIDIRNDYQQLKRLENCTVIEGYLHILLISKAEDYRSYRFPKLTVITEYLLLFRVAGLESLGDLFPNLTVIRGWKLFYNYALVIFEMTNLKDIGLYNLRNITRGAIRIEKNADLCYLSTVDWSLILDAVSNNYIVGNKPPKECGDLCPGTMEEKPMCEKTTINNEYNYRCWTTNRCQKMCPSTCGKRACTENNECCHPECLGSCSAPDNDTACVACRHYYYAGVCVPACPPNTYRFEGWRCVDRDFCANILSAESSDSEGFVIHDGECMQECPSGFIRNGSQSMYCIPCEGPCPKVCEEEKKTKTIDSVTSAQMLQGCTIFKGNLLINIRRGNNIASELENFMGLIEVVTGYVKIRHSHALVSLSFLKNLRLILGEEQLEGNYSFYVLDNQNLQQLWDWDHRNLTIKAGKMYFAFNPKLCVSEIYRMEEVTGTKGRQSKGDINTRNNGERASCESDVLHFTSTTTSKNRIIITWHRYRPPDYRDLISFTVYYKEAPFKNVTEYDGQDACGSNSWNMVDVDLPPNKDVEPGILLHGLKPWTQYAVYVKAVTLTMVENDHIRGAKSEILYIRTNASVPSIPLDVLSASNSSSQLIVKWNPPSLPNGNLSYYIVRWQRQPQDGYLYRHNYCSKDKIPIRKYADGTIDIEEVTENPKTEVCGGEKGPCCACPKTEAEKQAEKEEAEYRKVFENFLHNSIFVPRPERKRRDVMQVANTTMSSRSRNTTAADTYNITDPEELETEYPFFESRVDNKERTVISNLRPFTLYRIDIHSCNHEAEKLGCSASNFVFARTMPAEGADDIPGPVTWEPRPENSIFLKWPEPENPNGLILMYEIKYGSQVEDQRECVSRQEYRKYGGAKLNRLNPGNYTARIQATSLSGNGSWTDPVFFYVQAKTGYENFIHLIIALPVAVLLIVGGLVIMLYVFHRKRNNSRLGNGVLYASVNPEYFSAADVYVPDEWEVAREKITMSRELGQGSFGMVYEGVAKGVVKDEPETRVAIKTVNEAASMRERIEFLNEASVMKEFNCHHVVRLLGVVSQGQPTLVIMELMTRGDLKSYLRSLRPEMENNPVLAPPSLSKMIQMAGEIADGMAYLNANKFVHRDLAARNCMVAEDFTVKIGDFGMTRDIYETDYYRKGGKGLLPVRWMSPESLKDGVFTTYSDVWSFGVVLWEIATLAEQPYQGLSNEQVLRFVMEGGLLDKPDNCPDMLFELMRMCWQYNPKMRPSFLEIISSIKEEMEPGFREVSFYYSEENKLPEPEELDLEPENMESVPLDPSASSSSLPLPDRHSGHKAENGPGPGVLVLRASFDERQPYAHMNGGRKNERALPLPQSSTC", "test": "SelectScreen Kinase Profiling", "format": "biochemical", "description": "as §1\nas §1, with “Table I (Above) HVS” for “HVS”, “profile (Table 1).” for “profile.”, “(Table 1).” for “(see Table I below).”"}, "[1]": {"test_system": "MDA-MB-231 breast cancer cells", "test": "LDH cytotoxicity assay", "format": "cell-based, human", "conditions": "MDA-MB-231 cells; 50 μM and 100 μM", "description": "FIG. 3. (A) Effect of HVS treatment on HGF-stimulated growth of Met-dependent MDA-MB-231, MDA-MB-468, MCF-7. and BT-474 breast cancer cells after 72 h treatment period, compared to DMSO as vehicle control. Viable cell count was determined using MTT assay. Vertical bars indicate the mean cell count±SEM of N=3 in each treatment group; (−)-oleocanthal was used as a positive control at 20 μM. (B) Effect of HVS treatment on HGF-stimulated growth of Met-independent T-47D breast cancer cells after 72 h treatment period. Viable cell count was determined using MTT assay. Vertical bars indicate the mean cell count±SEM of N=3 in each treatment group. […] Triton X-100 was used as a positive control to cause the breakdown of all the cells and induce the total possible LDH release. (D) Effects of HVS treatment on the viability of non-tumorigenic human MCF10A mammary epithelial cells after a 24 h treatment period, compared to DMSO as vehicle control. (E) As in panel (A) but without HGF. […] Viable cell count was determined using MTT assay. Vertical bars indicate the mean cell count±SEM of N=3 in each treatment group; doxorubicin was used as a positive control at 10 μM dose. *P<0.05 as compared with vehicle treated control.\n[…]. Selection of the aforementioned breast cancer cells was based on their phenotypes. […]"}, "[2]": {"test_system": "MDA-MB-231, MDA-MB-468, MCF-7 and BT-474 cells", "test": "Growth of breast cancer cells without HGF, MTT assay", "format": "cell-based, human", "conditions": "similar treatment doses; no HGF", "description": "FIG. 3. (A) Effect of HVS treatment on HGF-stimulated growth of Met-dependent MDA-MB-231, MDA-MB-468, MCF-7. and BT-474 breast cancer cells after 72 h treatment period, compared to DMSO as vehicle control. Viable cell count was determined using MTT assay. Vertical bars indicate the mean cell count±SEM of N=3 in each treatment group; (−)-oleocanthal was used as a positive control at 20 μM. (B) Effect of HVS treatment on HGF-stimulated growth of Met-independent T-47D breast cancer cells after 72 h treatment period. Viable cell count was determined using MTT assay. Vertical bars indicate the mean cell count±SEM of N=3 in each treatment group. (C) Cytotoxic effects of HVS on the highly metastatic MDA-MB-231 breast cancer cells at two different concentrations (30 and 60 μM) using LDH cytotoxicity assay. Triton X-100 was used as a positive control to cause the breakdown of all the cells and induce the total possible LDH release. (D) Effects of HVS treatment on the viability of non-tumorigenic human MCF10A mammary epithelial cells after a 24 h treatment period, compared to DMSO as vehicle control. (E) As in panel (A) but without HGF. […] Viable cell count was determined using MTT assay. Vertical bars indicate the mean cell count±SEM of N=3 in each treatment group; doxorubicin was used as a positive control at 10 μM dose. *P<0.05 as compared with vehicle treated control.\n[…]. […]"}}, "data": [{"smiles": "COc1cc(CCOC(=O)/C=C/c2cc(OC)c(O)c(OC)c2)ccc1O", "note": "[Compound 8, (E)-4-hydroxy-3-methoxyph-ethyl 3-(4-hydroxy-3,5-dimethoxyphenyl) acrylate]", "values": [{"measurement": "inhibition at 10 µM", "setting": "HER4 (ERbB4)", "value": 7, "unit": "%"}, {"measurement": "inhibition at 10 µM", "setting": "FLT1 (VEGFR1)", "value": 9, "unit": "%"}, {"measurement": "inhibition at 10 µM", "setting": "EGFR (ERbB1)", "value": 7, "unit": "%"}, {"measurement": "inhibition at 10 µM", "setting": "FGFR1", "value": 50, "unit": "%"}, {"measurement": "inhibition at 10 µM", "setting": "KDR (VEGFR2)", "value": 20, "unit": "%"}, {"measurement": "inhibition at 10 µM", "setting": "ALK", "value": 21, "unit": "%"}, {"measurement": "inhibition at 10 µM", "setting": "KIT", "value": -3, "unit": "%"}, {"measurement": "inhibition at 10 µM", "setting": "PDGFRβ", "value": 14, "unit": "%"}, {"measurement": "inhibition at 10 µM", "setting": "ROS1", "value": 24, "unit": "%"}, {"measurement": "inhibition at 10 µM", "setting": "HER2 (ERbB2)", "value": 4, "unit": "%"}, {"measurement": "Mean inhibition at 10 μM of HVS (%)", "setting": "IGF1R", "value": "no observed inhibition"}, {"measurement": "inhibition at 10 µM", "setting": "IGF1R; read-out: Mean inhibition at 10 μM of HVS (%)", "value": -5, "unit": "%"}, {"measurement": "LDH release", "setting": "[1]", "value": "minimal LDH release"}, {"measurement": "effect on growth in the absence of HGF", "setting": "[2]", "value": "no discernable effects"}]}]}
